In this assay the target is T1, human GPR84 receptor (Homo sapiens, UniProt Q9NQS5).
T1 construct: frozen aliquots prepared by acCELLerate; host or cells: CHO-K1
T1 sequence (Q9NQS5 whole entry): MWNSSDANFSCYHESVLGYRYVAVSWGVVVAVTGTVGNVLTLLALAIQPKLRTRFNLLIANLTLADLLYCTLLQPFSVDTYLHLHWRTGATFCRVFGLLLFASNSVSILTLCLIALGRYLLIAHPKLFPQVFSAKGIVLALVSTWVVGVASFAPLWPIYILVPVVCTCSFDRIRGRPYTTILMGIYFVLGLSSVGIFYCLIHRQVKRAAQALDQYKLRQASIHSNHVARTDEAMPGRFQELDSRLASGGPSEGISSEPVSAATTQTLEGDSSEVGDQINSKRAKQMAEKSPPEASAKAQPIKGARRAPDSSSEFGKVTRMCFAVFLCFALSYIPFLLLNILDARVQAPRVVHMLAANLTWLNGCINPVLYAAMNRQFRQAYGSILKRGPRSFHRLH
As to the kind of experiment: cAMP HTRF assay for identification of cellular GPR84 antagonists. In kind it is cell-based. The note with it: CHO-K1 cells stably expressing human GPR84; Forskolin plus agonist 6-OAU; cAMP HTRF readout; average or median values. The gist of the method:
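CHO-K1 cells stably expressing human GPR84, preincubated with compound 30 min at room temperature, then stimulated 30 min with 6-OAU (EC80) plus forskolin (EC90). cAMP measured by HTRF 665/620 nm ratio after 60 min lysis; 11 concentrations from 20 μM to 0.07 nM in duplicate, IC50 by 4-parameter fit.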
Turning to `Cc1c(C(=O)NCC2CCCO2)oc2c1-c1nn(Cc3cccc(Cl)c3)cc1CC2` (racemic) [Example 15, 2-[(3-chlorophenyl)methyl]-8-methyl-N-[(2RS)-tetrahydrofuran-2-ylmethyl]-4,5-dihydro-2H-furo[2,3-g]indazole-7-carboxamide], the IC50 came to 0.074 µM. For `Cc1c(C(=O)NCC(C)(C)O)oc2c1-c1nn(Cc3ccc(Cl)cc3)cc1CC2` [Example 60, 2-[(4-chlorophenyl)methyl]-N-(2-hydroxy-2-methylpropyl)-8-methyl-4,5-dihydro-2H-furo[2,3-g]indazole-7-carboxamide], the concentration for half-maximal inhibition (IC50) is 5.64 µM. `Cc1c(C(=O)N2CCS(=O)(=O)CC2)oc2c1-c1nn(Cc3ccc(Cl)cc3)cc1CC2` [Example 90]: the IC50 was 18.9 µM. With `Cc1c(C(=O)NCC(=O)NC2CC2)oc2c1-c1nn(Cc3ccc(Cl)cc3)cc1CC2` [Example 33, 2-[(4-chlorophenyl)methyl]-N-[2-(cyclopropylamino)-2-oxoethyl]-8-methyl-4,5-dihydro-2H-furo[2,3-g]indazole-7-carboxamide] the figure was 3.31 µM; with `Cc1ccc(Cn2cc3c(n2)-c2c(oc(C(=O)NC[C@@H]4COCCO4)c2C)CC3)cc1` [Example 2, N-{[(2R)-1,4-dioxan-2-yl]methyl}-8-methyl-2-[(4-methylphenyl)methyl]-4,5-dihydro-2H-furo[2,3-g]indazole-7-carboxamide], 0.007 µM; with `Cc1c(C(=O)N(C)Cc2ccncc2)oc2c1-c1nn(Cc3ccc(Cl)cc3)cc1CC2` [Example 66, 2-[(4-chlorophenyl)methyl]-/,8-dimethyl-N-[(pyridin-4-yl)methyl]-4,5-dihydro-2H-furo[2,3-g]indazole-7-carboxamide], 7.59 µM. With `Cc1c(C(=O)NCC2CCCO2)oc2c1-c1nn(Cc3cccc(Cl)c3)cc1CC2` (single isomer, unassigned) [Example 15-2], the half-maximal inhibitory concentration (IC50) turned out to be 0.55 µM. For `Cc1c(C(=O)NCC(N)=O)oc2c1-c1nn(Cc3ccc(Cl)cc3)cc1CC2` [Example 48, N-(2-amino-2-oxoethyl)-2-[(4-chlorophenyl)methyl]-8-methyl-4,5-dihydro-2H-furo[2,3-g]indazole-7-carboxamide], the concentration for half-maximal inhibition (IC50) is 2.13 µM. Consider `Cc1c(C(=O)NCCN2CCCC2)oc2c1-c1nn(Cc3ccc(Cl)cc3)cc1CC2` [Example 24, 2-[(4-chlorophenyl)methyl]-8-methyl-N-[2-(pyrrolidin-1-yl)ethyl]-4,5-dihydro-2H-furo[2,3-g]indazole-7-carboxamide], for which the 50% inhibitory concentration (IC50) turned out to be 1.05 µM. For the molecule `Cc1c(C(=O)N2CCC(C(N)=O)CC2)oc2c1-c1nn(Cc3ccc(Cl)cc3)cc1CC2` [Example 83, 1-{2-[(4-chlorophenyl)methyl]-8-methyl-4,5-dihydro-2H-furo[2,3-g]indazole-7-carbonyl}piperidine-4-carboxamide], the 50% inhibitory concentration (IC50) stood at 16.4 µM.

On to `Cc1c(C(=O)N(C)Cc2cccnc2)oc2c1-c1nn(Cc3ccc(Cl)cc3)cc1CC2` [Example 69, 2-[(4-chlorophenyl)methyl]-N,8-dimethyl-N-[(pyridin-3-yl)methyl]-4,5-dihydro-2H-furo[2,3-g]indazole-7-carboxamide], for which the 50% inhibitory concentration (IC50) came out at 9.4 µM. As for `Cc1c(C(=O)NCc2nccn2C)oc2c1-c1nn(Cc3ccc(Cl)cc3)cc1CC2` [Example 53, 2-[(4-chlorophenyl)methyl]-8-methyl-N-[(1-methyl-1H-imidazol-2-yl)methyl]-4,5-dihydro-2H-furo[2,3-g]indazole-7-carboxamide], the figure is 3.04 µM. `Cc1c(C(=O)N2CCC[C@@H]2C(N)=O)oc2c1-c1nn(Cc3ccc(Cl)cc3)cc1CC2` [Example 82, 1-{2-[(4-chlorophenyl)methyl]-8-methyl-4,5-dihydro-2H-furo[2,3-g]indazole-7-carbonyl}-D-prolinamide]: the IC50 worked out at 16.4 µM. As for `Cc1c(C(=O)NCc2ccon2)oc2c1-c1nn(Cc3ccc(Cl)cc3)cc1CC2` [Example 27, 2-[(4-chlorophenyl)methyl]-8-methyl-N-[(1,2-oxazol-3-yl)methyl]-4,5-dihydro-2H-furo[2,3-g]indazole-7-carboxamide], the figure is 0.15 µM. As for `Cc1c(C(=O)NCC2CCCO2)oc2c1-c1nn(Cc3ccc(Cl)cc3)cc1CC2` (single isomer, unassigned) [Example 21-1], the IC50 stood at 0.52 µM.

Turning to `Cc1c(C(=O)NCC2CCS(=O)(=O)C2)oc2c1-c1nn(Cc3ccc(Cl)cc3)cc1CC2` (stereo not shown) [Example 59, 2-(4-chlorobenzyl)-N-[(1,1-dioxidotetrahydrothiophen-3-yl)methyl]-8-methyl-4,5-dihydro-2H-furo[2,3-g]indazole-7-carboxamide], the half-maximal inhibitory concentration (IC50) came out at 5.28 µM. For `Cc1c(C(=O)NCCC(N)=O)oc2c1-c1nn(Cc3ccc(Cl)cc3)cc1CC2` [Example 56, N-(3-amino-3-oxopropyl)-2-[(4-chlorophenyl)methyl]-8-methyl-4,5-dihydro-2H-furo[2,3-g]indazole-7-carboxamide], the IC50 is 4.88 µM.

As for `Cc1c(C(=O)NCCc2ccccc2)oc2c1-c1nn(Cc3ccc(Cl)cc3)cc1CC2` [Example 57, 2-[(4-chlorophenyl)methyl]-8-methyl-N-(2-phenylethyl)-4,5-dihydro-2H-furo[2,3-g]indazole-7-carboxamide], the IC50 stood at 5.04 µM. `Cc1ccccc1Cn1cc2c(n1)-c1c(oc(C(=O)NCC3CCCN3C(=O)OC(C)(C)C)c1C)CC2` (racemic) [Example 6, tert-butyl (2RS)-2-[{{8-methyl-2-[(2-methylphenyl)methyl]-4,5-dihydro-2H-furo[2,3-g]indazole-7-carbonyl}amino)methyl]pyrrolidine-1-carboxylate]: the IC50 came out at 2.22 µM.

`Cc1c(C(=O)NCc2ccon2)oc2c1-c1nn(Cc3ccc(F)cc3Cl)cc1CC2` [Example 94]: the half-maximal inhibitory concentration (IC50) is 0.28 µM. As to `Cc1c(C(=O)NCCN2CCN(C)CC2)oc2c1-c1nn(Cc3ccccc3Cl)cc1CC2` [Example 11, 2-[(2-chlorophenyl)methyl]-8-methyl-N-[2-(4-methylpiperazin-1-yl)ethyl]-4,5-dihydro-2H-furo[2,3-g]indazole-7-carboxamide], the half-inhibitory concentration (IC50) was 0.23 µM. As for `Cc1c(C(=O)N2CCc3ccccc3C2)oc2c1-c1nn(Cc3ccc(Cl)cc3)cc1CC2` [Example 61, {2-[(4-chlorophenyl)methyl]-8-methyl-4,5-dihydro-2H-furo[2,3-g]indazol-7-yl}(3,4-dihydroisoquinolin-2(1H)-yl)methanone], the figure is 6.02 µM; as for `Cc1c(C(=O)NCC2CCCO2)oc2c1-c1nn(Cc3ccc(F)cc3Cl)cc1CC2` (racemic) [Example 92, 2-[(2-chloro-4-fluorophenyl)methyl]-8-methyl-N-[(2RS)-tetrahydrofuran-2-ylmethyl]-4,5-dihydro-2H-furo[2,3-g]indazole-7-carboxamide], 0.16 µM; as for `COCCN(C)C(=O)c1oc2c(c1C)-c1nn(Cc3ccc(Cl)cc3)cc1CC2` [Example 80, 2-[(4-chlorophenyl)methyl]-N-(2-methoxyethyl)-N,8-dimethyl-4,5-dihydro-2H-furo[2,3-g]indazole-7-carboxamide], 15.9 µM.

In the case of `Cc1c(C(=O)NCC2CCCO2)oc2c1-c1nn(Cc3ccc(Cl)cc3)cc1CC2` (single isomer, unassigned) [Example 21-2], the half-inhibitory concentration (IC50) amounted to 0.089 µM.

For the origin of these results see patent publication US20240239804A1, “FUROINDAZOLE DERIVATIVES AS ANTAGONISTS OR INHIBITORS OF GPR84” (Bayer Aktiengesellschaft, priority 2021, published 2024).
